Measured values taken from a melting point compilation (Tetko et al.; mined from patent text by program, amines drawn as free bases though some values may be those of a salt).

Row | melting point | SMILES
1 | 245 to 247 °C | O=C(O)CCc1ccc(C(=O)CN2CCN(c3ccncc3)CC2)cc1
2 | 224 to 226 °C | CCc1ccc2oc(C(=O)Nc3ccc(-c4ccc(S(=O)(=O)NC(C(=O)O)C(C)C)cc4)cc3)c(C)c2c1OCc1ccccc1 (stereo unspecified)
3 | 75 to 78 °C | O=C(NCCSCc1cccc(I)c1)c1c(Cl)cccc1Cl
4 | 58 to 59 °C | CC(C)(C)OC(=O)NCC(C(=O)OCc1ccccc1)c1ccccc1 (stereo unspecified)
5 | 130 to 133 °C | CCn1c(=O)n(C)c(=O)c2c(C(=O)N3C[C@](C)(O)CO3)c(Cn3c(C)nc(Cl)c3Cl)sc21
6 | 163 to 164 °C | CC(C)(C)c1ccccc1N1CCN(C(=O)CC#N)CC1
7 | 154 to 156 °C | COc1ccc(C2c3c(C)c(N4CCC(c5ccc(OC)c(OC)c5)CC4)c(C)c(C)c3OC2(C)C)cc1 (stereo unspecified)
8 | 178 to 183 °C | CC(C)CC(NC(=O)C(C)NC(=O)C(CC(=O)N1CCOCC1)Cc1cccc2ccccc12)C(O)C(=O)OC(C)C (mixture of isomers)
9 | 133 to 136 °C | CN1C(=O)C2C3CCC(CC3)C2(c2ccc(F)c(F)c2)C1=O (stereo unspecified)
10 | 283 °C | COc1cc2oc(C(=O)O)cc2cc1Cl
11 | 68 to 70 °C | C(=C/c1ccccc1)/COCCC1CCN(Cc2ccccc2)CC1
12 | 203 °C | O=c1ccn([C@@H]2C=CCC[C@@H]2O)c(=O)[nH]1 (racemic)
13 | 102 to 104 °C | CCOC(=O)C1(C(=O)OCC)OC(=O)c2ccccc2C1(O)c1ccc(F)cc1 (stereo unspecified)
14 | 170 to 172 °C | CN1CCCCc2cc(Nc3ncc(Cl)c(Nc4ccccc4NS(C)(=O)=O)n3)ccc21
15 | 126 to 129 °C | O=C(O)Cc1ccc(C(=O)c2cccs2)cc1
16 | 186 °C | COC(=O)C(=Cc1ccc(-c2cccc(N(C)C(=O)Nc3ccccc3)c2)cc1)OC
17 | 162 to 163 °C | O=C1OCCN1c1cc(-c2ccnc(Nc3cccc(Cl)c3)n2)ccn1
18 | 290 to 292 °C | O=C1CSc2cc(-c3cccc([N+](=O)[O-])c3)ccc2N1
19 | 196 to 198 °C | CCOc1cccc2cc(S(=O)(=O)Nc3ccc(OC)cc3)c(=O)oc12
20 | 102 to 104 °C | COc1cc2c(cn1)CCC(=CN(C)C)C2=O
21 | 141 to 143 °C | N#CC1C=Cc2cc(Cl)ccc2N1C(=O)c1ccccc1 (stereo unspecified)
22 | 159 to 161 °C | Nc1nc2ccccc2c2c1ncn2CCOCc1ccncc1
23 | 141 to 142 °C | COc1cc(NC(=O)CC23CC4CC(CC(C4)C2)C3)c(C)c([N+](=O)[O-])c1

Row | melting point | SMILES
24 | 76 °C | CCC(=NOCCO)c1ccc(-c2ccccc2)cc1
25 | 174 to 175 °C | Cc1cnc2c(c1)C(O)C(Cc1ccc(C#N)cc1)CC2 (stereo unspecified)
26 | 134 to 136 °C | COc1cnccc1CCCOc1cccnc1Oc1cccc(Br)c1
27 | 173 to 175 °C | CC(C)(C)Sc1c(CC(C)(C)C(=O)O)n(Cc2ccc(Cl)cc2)c2ccc(OCc3cnccn3)cc12
28 | 167 to 168 °C | COc1cc(O)cc2cc(-c3ccc(O)cc3)oc12
29 | 154 to 155 °C | CCCN(CCC)[C@H]1Cc2c[nH]c3ccc(-c4nc(-c5ccccc5)no4)c(c23)C1
30 | 135 to 136 °C | CCCOc1ccccc1-c1nc(O)cc(C#N)n1
31 | 183 to 184 °C | CC(=O)c1ccc(C(=O)Nc2ccc(C(C)(C)C)cc2)cc1
32 | 153 to 154 °C | CNC(=O)c1ccccc1I
33 | 259 to 260 °C | O=C1Nc2c(Br)cc(Br)c3cccc1c23
34 | 41 to 44 °C | CS(=O)(=O)SCCOC(=O)Cc1cccc(Nc2c(Cl)cccc2Cl)c1
35 | 155 °C | CS(=O)(=O)c1ccc(-c2cc(CO)nn2Cc2ccccc2)cc1
36 | 105 to 106 °C | COCOc1ccccc1-c1cc(-c2ccc(OC)c(C(=O)OC)c2)c(C#N)c(NC(=O)c2cccs2)n1
37 | 52 to 60 °C | CN(CC(=O)C(Cc1ccccc1)NC(=O)c1ccccc1)C(=O)OC(Cc1ccccc1)C(=O)O (stereo unspecified)
38 | 218 °C | CCc1ccc2ncc(C(=O)N(O)c3ccccc3)c(O)c2c1
39 | 67 °C | CCOC(=O)c1cnc(Oc2ccccc2)s1
40 | 86 °C | CC(C)C[C@@H](O)CC(=O)O
41 | 125 to 129 °C | Cn1nc(N2c3ccccc3C[C@H]2C(=O)N2CCCC(C)(C)C2)ccc1=O
42 | 192 to 193 °C | CC(=O)c1ccc(SCc2cc3c(cc2O)CCCO3)cc1
43 | 85 to 85.5 °C | COCCOc1ccc(CO)c(Oc2ncc(C(F)(F)F)cc2Cl)c1
44 | 187 °C | Oc1nc2ccc3sccc3c2nc1O
45 | 144 to 146 °C | O=C(NC1CCN(Cc2ccccc2)CC1)c1ccccc1OCc1ccnc2ccccc12
46 | 123 to 124 °C | COC(=O)CCCc1cc2nc(Cl)ccc2n1S(=O)(=O)c1ccc(-c2ccccn2)cc1

Row | melting point | SMILES
47 | 105 to 109 °C | Cn1cc(C2=C(c3cn(C)c4cc([N+](=O)[O-])ccc34)C(=O)N(COP(=O)(OCc3ccccc3)OCc3ccccc3)C2=O)c2ccccc21
48 | 138 to 142 °C | CC(C)n1c(=O)sc2cc([N+](=O)[O-])ccc21
49 | 254 to 256 °C | CCOC(=O)C1=NNc2ccc(-c3ccc(Cl)cc3)cc2C1
50 | 321 to 323 °C | CCc1nn(-c2ccc3cc(-c4ccc(-n5cnnc5)cc4)c(=O)oc3c2)nc1C
51 | 180 to 181 °C | COc1ccc(S(=O)(=O)Nc2cccnc2Nc2cccc(F)c2)cc1
52 | 122 to 123 °C | NC(=O)c1cccc(OCc2cccc(O)c2)c1
53 | 190 to 195 °C | CN(C)c1snc2c1c(N)nc(=O)n2Cc1ccccc1
54 | 60.1 °C | CC#CCOc1cc(Oc2cccc(F)c2)ncn1
55 | 56 to 57 °C | CCOC(=O)Cc1ccc2c(c1)CC(CC(=O)O)C2 (stereo unspecified)
56 | 137 °C | CCCCC(=O)N(Cc1ccc(OC(F)(F)F)c(Cl)c1)c1cc(F)cc(-c2nnn[nH]2)c1
57 | 134 to 137 °C | CCCOc1ccc(C2=NN(C(=O)Nc3ccc(C(F)(F)F)cc3)CC2(C)C(=O)OC)cc1 (stereo unspecified)
58 | 137 to 138 °C | COc1cc(COc2nn(-c3ccccc3)cc2/C=C/c2cnco2)ccc1OCc1nc(-c2ccco2)oc1C
59 | > 250 °C | CC(C)C1=C(C#N)C(c2ccccc2Cl)c2c[nH]nc2N1 (stereo unspecified)
60 | 110 to 111 °C | O=C(OCc1ccccc1)N1c2ccc(I)cc2CC1CO (stereo unspecified)
61 | 113 to 114 °C | CCOC(=O)c1cn(-c2ccc(Oc3ccccc3)cc2)cn1
62 | 130 °C | O=C(Nc1cccc(C(=NO)c2ccccc2)c1)c1ccn2c1CSC2c1cccnc1 (single isomer, unassigned; (+))
63 | 204 °C | Cc1cccc(NC(=O)NCC(=O)N(CC(=O)NCc2ccccc2)c2ccccc2)c1
64 | 125 to 128 °C | CC(C)C1(C)N=C2c3ncccc3C(=O)N2C1=O (stereo unspecified)
65 | 292 °C | COc1cccc(Sc2c(C)n(CC(=O)O)c3ccc(NS(C)(=O)=O)cc23)c1
66 | 228 to 229 °C | O=C(Nc1cccnn1)N1CCN(c2nccc(-c3ccccc3F)n2)CC1
67 | 128 °C | CC(C)(C)OC(=O)NCc1ccc(CNC(=O)N2CCN(C(=O)OCc3ccccc3)CC2)cc1
68 | 218 to 219 °C | CC1COCc2nc3c(N)nc4ccc(OC(=O)N5CCCC5)cc4c3n21 (stereo unspecified)
69 | 136 to 140 °C | O=C(O)CCCNC(=O)c1cc(Cl)ccc1O

Row | melting point | SMILES
70 | 118 to 121 °C | CC(C)(C(=O)O)c1nc2ccc(OCCCN3CCN(C(c4ccccc4)c4ccccc4)CC3)nn2c1Cl
71 | 154 to 155 °C | O=C(CCCl)c1cc2c3c(c1)CCN3C(=O)CC2
72 | 140 to 141 °C | O=[N+]([O-])c1cn2c(n1)OC[C@@H](OCc1csc(-c3ccc(OC(F)(F)F)cc3)n1)C2
73 | 72 to 74 °C | C=CC(=O)OCCCCCCCCCCCOc1ccc(O)cc1
74 | 41 to 43 °C | COc1ccc(F)cc1C1OC(=O)CC1C(=O)O (stereo unspecified)
75 | 242 °C | Cc1cn(-c2cc(Br)c3c(c2)CCC(=O)N3)c(C)n1
76 | > 300 °C | Cn1c(=O)c2cnc(N)nc2n(C)c1=O
77 | 199 to 200 °C | CC(NC(CCc1ccccc1)C(=O)O)C(=O)OC(Cc1ccccc1)C(=O)O (stereo unspecified)
78 | 233 to 237 °C | CCN1CCCC1CNC(=O)CCCOc1ccc2nc3[nH]c(=O)[nH]c3cc2c1 (stereo unspecified)
79 | 114 to 115 °C | C=CCc1cc2c(c(CC=C)c1O)NC(=O)CO2
80 | 106 to 107 °C | CC(=O)c1cn(-c2c(Cl)cc(OC(F)(F)F)cc2Cl)nc1C#N
81 | 85 to 86 °C | CCN(CC)CC(=O)Nc1ccc(NC(=O)CN(CC)CC)c2c1C(=O)c1ccccc1C2=O
82 | 138 to 140 °C | O=C1C=CC(=C(c2ccc3ccccc3c2)c2ccc3ccccc3c2)O1
83 | 233 °C | COc1ccc(N2C(=O)C(OC)C2c2ccc(C(=O)O)cc2)cc1 (stereo unspecified)
84 | 175 to 180 °C | N#Cc1c(N2CCc3ccccc3CC2)nc(NCCCOc2ccccc2)[nH]c1=O
85 | 87 to 90 °C | Cc1ccccc1S(=O)(=O)NC(=O)CCSC1c2ccccc2COc2ccc(OCc3ccc4ccc(Cl)cc4n3)cc21 (stereo unspecified)
86 | 91.5 to 93.3 °C | CCCCCC(COc1ccc(C(=O)O)cc1)c1ccc2c(c1)OCCC2(C)C (stereo unspecified)
87 | 106 to 119 °C | COc1cc(C2CCN(C(=O)CN)CC2)ccc1Nc1ncc2ccc(-c3ccccc3N(C)S(C)(=O)=O)n2n1
88 | 126 to 128 °C | CCOC(=O)c1cccc(NC(=O)N2CCn3c(c(C(N)=O)c(Cl)c3-c3ccccc3)C2)c1
89 | 51 °C | CSc1cc2[nH]ccc2cc1F

Row | SMILES | melting point
90 | FC(F)(F)C1(c2cc(Cl)cc(Cl)c2)CC(c2ccc(Br)nc2)=NO1 (stereo unspecified) | 147 to 148 °C
91 | Cc1cc(Cl)cc(C(=O)NCC2CC2)c1NC(=O)c1cc(Br)nn1-c1ncccc1Cl | 166 to 168 °C
92 | O=C1NCN(c2ccccc2)C12CCN(CC1CCc3ccc(F)cc3C1O)CC2 (stereo unspecified) | 210 to 212 °C
93 | O=C(c1ccn2c1CSC2c1cccnc1)c1cn(Cc2nnn[nH]2)c2cc(-c3ccc(F)cc3)ccc12 (stereo unspecified) | 110 to 118 °C
94 | NC(=O)NCc1ccc(CNC(=O)[C@@H](CCCNC(N)=N[N+](=O)[O-])NC(=O)OCc2ccc3ccccc3c2)cc1 | 155 to 160 °C
95 | O=C1NCN(c2ccccc2)C12CCN(CCCn1c(=O)[nH]c3cc(Cl)c(Cl)cc31)CC2 | 275 °C
96 | Cn1nnc(-c2ccc3[nH]cc(C4=CCN(CCN5CCNC5=O)CC4)c3c2)n1 | 249 to 252 °C
